{"source": "patent US7151093B2", "about": "“Use of sphingosine 1-phosphate as active ingredient for the treatment of pulmonary fibrosis” (Ono Pharmaceutical Co., Ltd., priority 1999, dated 2006)", "tested_on": "Bleomycin-induced Lung Injury Model Animal", "test": "Bleomycin-induced lung injury model, lung tissue hydroxyproline content", "format": "in vivo, ICR male mice", "procedure": "Production of Bleomycin-induced Lung Injury Model Animal:\nUsing each of ICR male mice and under pentobarbital (60 mg/kg, i.v.) anesthesia, the cervical region was shaved and the skin was incised for about 4 mm from under the larynx region along the median line. Next, the muscle layer covering upper trachea was peeled off to expose the trachea. Using a micro-syringe, physiological saline or bleomycin hydrochloride (0.03 mg/animal, manufactured by Nippon Kayaku) was administered tracheally (50 μl/animal) from the tracheal smooth muscle region between cricoid cartilage. After the administration, the incised region was closed and antibiotics were administered into the thigh intramuscularly in order to prevent infection. S1P (10 mg/5 ml/kg, 0.5% aqueous solution of carboxymethylcellulose sodium (CMC.Na)-physiological saline, manufactured by Matreya) was intraperitoneally administered once a day for 14 days after the bleomycin induction. […]\nThe hydrolyzed supernatant (25 μl) was mixed with borate-alanine buffer (2.475 ml) separately prepared, and potassium chloride (solid) was added thereto until it was saturated. […] The absorbance of each sample was immediately measured at 560 nm, and the amount of hydroxyproline in the sample was calculated from a calibration curve.\nThe inhibition ratio was calculated by the following equation. […]", "data": [{"molecule": "CCCCCCCCCCCCC/C=C/[C@H](O)[C@H](N)COP(=O)(O)O", "note": "(stereo in doubt) [S1P, sphingosine 1-phosphate]", "values": [{"measurement": "Inhibition ratio: suppression of bleomycin-induced increase of hydroxyproline content", "setting": "[{(C−B)−(S−B)}÷(C−B)]×100, S1P 10 mg/kg i.p. once a day for 14 days, ICR male mice", "value": "ca. 90%"}, {"measurement": "Hydroxyproline content", "setting": "bleomycin-induced (0.03 mg/animal, tracheal) ICR male mice, S1P 10 mg/5 ml/kg i.p. once a day for 14 days, lung excised fifteen days after induction", "value": "227.8 ± 17.5", "unit": "μg/lung"}]}]}
